Reference: patent US10954221B2, “GLP-1R agonists and uses thereof” (QILU REGOR THERAPEUTICS INC., priority 2019, dated 2021)
pEC50: −log10 of the molar value.

How the values were obtained:
GLP1R [1] = target: T1, GLP1R (Homo sapiens, UniProt P43220); assay: GLP1R cAMP assay (HTRF), HEK293/GLP-1R/CRE/Luc, Clone 4
Target sequence in this assay (P43220 24-463): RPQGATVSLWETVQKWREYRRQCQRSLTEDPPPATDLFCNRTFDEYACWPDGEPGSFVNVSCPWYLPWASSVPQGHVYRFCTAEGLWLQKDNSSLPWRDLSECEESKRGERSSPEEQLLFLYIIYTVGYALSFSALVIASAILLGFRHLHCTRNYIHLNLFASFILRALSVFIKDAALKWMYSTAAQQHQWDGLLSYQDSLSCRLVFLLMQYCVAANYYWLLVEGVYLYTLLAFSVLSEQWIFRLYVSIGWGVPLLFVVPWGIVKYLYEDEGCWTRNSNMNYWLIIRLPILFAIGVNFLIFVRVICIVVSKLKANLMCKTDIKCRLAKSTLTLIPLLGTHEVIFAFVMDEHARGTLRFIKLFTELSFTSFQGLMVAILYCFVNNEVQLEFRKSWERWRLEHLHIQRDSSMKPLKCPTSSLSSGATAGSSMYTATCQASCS
Method: The human GLP-1R coding sequence (NCBI Reference Sequence NM_002062) was subcloned into pcDNA3.1+/Hygro vector (Invitrogen) and transfected into HEK293/CRE/Luc parental cell line. A cell line stably expressing the receptor was isolated.
Varying concentrations of each compound to be tested (in DMSO) were diluted in DMSO to obtain 200× compound working solution first and then 50 nl compounds were added to a white 384-well assay plate (Greiner 784075) with ECHO. The final DMSO concentration was 0.5%.
Cells were removed from cryopreservation, re-suspended in 5 mL of Dulbecco's Phosphate Buffered Saline (DPBS-Sigma Cat #D8537) and centrifuged at 900×g for 5 min at 22° C. The cell pellet was then re-suspended in 1 mL of assay buffer [DPBS with 500 μM IBMX (Sigma #15879) and 0.1% BSA (Sigma #A1933). IBMX and BSA were freshly added on the day of assay]. A 10 μL sample of the cell suspension was counted on an Invitrogen Countess II to determine cell viability and cell count per mL. The remaining cell suspension was then adjusted with assay buffer to deliver 1000 viable cells per well using a Matrix Combi Multidrop reagent dispenser. 10 μL cell suspensions were added to each well
of the assay plate which already contains compound. The plate was sealed and incubated at 37° C. with 5% CO2 for 30 minutes.
Following the 30 minute incubation, 5 μL of labeled d2 cAMP and 5 μL of anti-cAMP antibody (both diluted 1:20 in cell lysis buffer; as described in the manufacturer's assay protocol) were added to each well of the assay plate. The plates were then incubated at room temperature and after 60 minutes, changes in the HTRF signal were read with an Envision multi-label plate reader using excitation of 330 nm and emissions of 615 and 665 nm. Raw data were converted to nM cAMP by interpolation from a cAMP standard curve (as described in the manufacturer's assay protocol) and the percent effect was determined relative to a saturating concentration of the full agonist GLP-17-37 (10 nM) included on each plate. EC50 determinations were made from agonist dose-response curves analyzed with a curve fitting program using a 4-parameter logistic dose response equation.

GLP1R [2] = target: T1, GLP1R; assay: cAMP assay in CHO cells stably expressing hGLP-1R; type: cell-based; set-up: expressed in transfected cells; host or cells: CHO cells stably transfected; settings: CHO cells stably expressing hGLP-1R (Table 2), read-out: CHO cAMP stable EC50
Method: GLP-1R-mediated agonist activity was determined with a cell-based functional assay utilizing an HTRF (Homogeneous Time-Resolved Fluorescence) cAMP detection kit (cAMP Dynamic 2 Assay Kit; CisBio cat #62AM4PEC) that measures cAMP levels in the cell. The method is a competitive immunoassay between native cAMP produced by the cells and exogenous cAMP labeled with the dye d2. The tracer binding is visualized by a mAb anti-cAMP labeled with Cryptate. The specific signal (i.e., energy transfer) is inversely proportional to the concentration of cAMP in either standard or experimental sample.
Following the 30 minute incubation, 5 μL of labeled d2 cAMP and 5 μL of anti-cAMP antibody (both diluted 1:20 in cell lysis buffer; as described in the manufacturer's assay protocol) were added to each well of the assay plate. […] Raw data were converted to nM cAMP by interpolation from a cAMP standard curve (as described in the manufacturer's assay protocol) and the percent effect was determined relative to a saturating concentration of the full agonist GLP-17-37 (10 nM) included on each plate. EC50 determinations were made from agonist dose-response curves analyzed with a curve fitting program using a 4-parameter logistic dose response equation. […]
Target sequence in this assay (P43220 24-463): as above

GLP1R [3] = target: T1, GLP1R; set-up: Emax: dose or concentration left out as unconfirmed; settings: CHO-K1, […], read-out: β-arrestin recruitment Bmax (%)
Target sequence in this assay (P43220 24-463): as above
Target sequence in this assay (P32121 whole entry partner): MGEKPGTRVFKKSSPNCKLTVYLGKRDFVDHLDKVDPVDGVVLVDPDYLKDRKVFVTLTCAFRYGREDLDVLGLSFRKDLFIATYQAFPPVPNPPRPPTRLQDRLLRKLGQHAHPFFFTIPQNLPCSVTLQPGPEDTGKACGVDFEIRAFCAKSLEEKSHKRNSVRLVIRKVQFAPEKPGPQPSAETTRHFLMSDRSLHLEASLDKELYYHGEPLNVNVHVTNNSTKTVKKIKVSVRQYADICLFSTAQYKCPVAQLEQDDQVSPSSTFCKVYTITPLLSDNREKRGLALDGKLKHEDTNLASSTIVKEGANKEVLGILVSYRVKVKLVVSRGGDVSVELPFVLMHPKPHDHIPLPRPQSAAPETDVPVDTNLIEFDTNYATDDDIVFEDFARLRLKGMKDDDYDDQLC
Method: Frozen cells were quickly thawed and 10 mL of cell plating medium (provided by the kit) was added to thawed cells. Cells were stored in a 37° C. incubator under 5% CO2 and kept for approximately 48 hours until ready to run the assay.
Reference and test compounds were dissolved in 100% DMSO. […] 5 μL of this solution was added to 20 μL cell medium in assay plate for a final top concentration of 10 μM. Plates were then incubated at 37° C. under 5% CO2 for 90 min.
Following 90 min incubation, detection reagents were made up by combining 1 part Galacton Star Substrate with 5 parts Emerald II™ Solution, and 19 parts of PathHunter Cell Assay Buffer, respectively. 12.5 μl detection reagent was added to each well. The plates were then incubated at room temperature in dark for 60 min. Plates were then read on Envision for 0.1 sec/well.
Cells were plated at a density of 1000 or 2000 cells/20 μL/well. Frozen cells were quickly thawed and added to 10 mL of cell plating medium. Cells were stored in a 37 degree incubator under 5% CO2 and left for approximately 48 hours until ready to run the assay
Prepare 10× concentration of an agonist in serum free DMEM, and add all solutions into the compound plate. 2.5 μL of this solution was added to 20 μL cell medium in assay plate for a final top concentration of 10 μM. Plates were incubated at 37° C. under 5% CO2 for 30 min. An additional 2.5 μL of Buffer was added to the entire plate for agonist mode and incubated at 37° C. for another 90 min.
Following 90 min incubation, detection reagents were made up as described. 12.5 μL was added to all wells. The plates were then incubated at room temperature in dark for 60 min. Plates were then read on Envision for 0.1 sec/well.
Data analysis: GraphPad Prism 6 was used for establishment of progression curve. EC50s or IC50s were determined by 4-parameter logistic dose response equation.

GLP1R [4] = target: T1, GLP1R; assay: β-Arrestin-mediated GLP1R internalization assay (PathHunter U2OS cells); type: cell-based; set-up: host or cells: PathHunter engineered U2OS cells; settings: averaged Bmax where applicable, Percentage of Control GLP-1 (7-37), top 10 μM, 180 min
Excerpt: A similar assay can also be used to assess the extent of signal attenuation due to GLP-1R internalization (the Internalization Assay). In this assay, activated GLP1R Internalization cells were engineered to co-express an untagged GLP1R, Enzyme Acceptor (EA) tagged β-Arrestin, and a ProLink™ (PK) tag localized to the endosomes. Activation of the GLP1R induces β-Arrestin recruitment, which leads to internalization of the Receptor/Arrestin-EA complex in PK-tagged endosomes. This forces complementation of the two β-galactosidase enzyme fragments (EA and PK) to form a functional enzyme that hydrolyzes substrate to generate a chemiluminescent signal.
Frozen cells were quickly thawed and 10 mL of cell plating medium (provided by the kit) was added to thawed cells. Cells were stored in a 37° C. incubator and kept for approximately 48 hours until ready for the assay.
Reference and test compounds were dissolved in 100% DMSO. […] 5 μL of this solution was added to 20 μL cell medium in assay plate for a final top concentration of 10 μM. Plates were incubated at 37° C. for 180 min.
Following 180 min incubation, detection reagents were made up by combining 1 part Galacton Star Substrate with 5 parts Emerald II™ Solution, and 19 parts of PathHunter Cell Assay Buffer, respectively. 12.5 μL detection reagent was added to each well. The plates were then incubated at room temperature for 60 min. Plates were then read on Envision for 0.1 sec/well.
EC50 determinations were made from agonist dose-response curves analyzed with a curve fitting program using a 4-parameter logistic dose response equation.
Target sequence in this assay (P43220 24-463): as the sequence (P43220 24-463) above
Target sequence in this assay (P32121 whole entry partner): as the sequence (P32121 whole entry partner) above

Row | pEC50 (GLP1R [1]) | pEC50 (GLP1R [2]) | Emax (GLP1R [3]) | β-arrestin internalization Bmax (POC) (GLP1R [4]) | SMILES
1 | 6.82 to 7.82 | < 6.00 |  |  | O=C(O)c1ccc2nn(Cc3ccc(-c4cccc(OCc5ccc(Cl)cc5F)n4)cc3F)c(CC3CCO3)c2c1 (centres unmarked) [Compound 326, 2-(4-(6-(4-chloro-2-fluorobenzyloxy)pyridin-2-yl)-2-fluorobenzyl)-3-(oxetan-2-ylmethyl)-2H-indazole-S-carboxylic acid]
2 | > 7.82 | > 7.82 | 37.8% |  | N#Cc1ccc(COc2cccc(-c3ccc(Cc4nc5ccc(C(=O)O)c(F)c5n4C[C@@H]4CCO4)c(F)c3)n2)c(F)c1 [Compound 310, (S)-2-(4-(6-((4-cyano-2-fluorobenzyl)oxy)pyridin-2-yl)-2-fluorobenzyl)-7-fluoro-1-(oxetan-2-ylmethyl)-1H-benzo[d]imidazole-6-carboxylic acid]
3 | > 7.82 | > 7.82 |  |  | N#Cc1ccc(COc2cccc(-c3cc(F)c(Cc4nc5ccc(C(=O)O)nc5n4C[C@@H]4CCO4)cc3F)n2)nc1 [Compound 279, (S)-2-(4-(6-((5-cyanopyridin-2-yl)methoxy)pyridin-2-yl)-2,5-difluorobenzyl)-3-(oxetan-2-ylmethyl)-3H-imidazo[4,5-b]pyridine-5-carboxylic acid]
4 | > 7.82 | 6.82 to 7.82 |  |  | N#Cc1ccc(COc2cccc(-c3ccc(Cc4nc5ccc(C(=O)O)nc5n4C[C@@H]4CCO4)c(F)c3)n2)nc1 [Compound 288, (S)-2-(4-(6-((5-cyanopyridin-2-yl)methoxy)pyridin-2-yl)-2-fluorobenzyl)-3-(oxetan-2-ylmethyl)-3H-imidazo[4,5-b]pyridine-5-carboxylic acid]
5 | > 7.82 | > 7.82 | 18.9% |  | N#Cc1ccc(COc2nc(-c3ccc(Cc4nc5ccc(C(=O)O)nc5n4C[C@@H]4CCO4)c(F)c3)ncc2F)c(F)c1 [Compound 263, (S)-2-(4-(4-(4-cyano-2-fluorobenzyloxy)-5-fluoropyrimidin-2-yl)-2-fluorobenzyl)-3-(oxetan-2-ylmethyl)-3H-imidazo[4,5-b]pyridine-5-carboxylic acid]
6 | > 7.82 | 6.82 to 7.82 |  |  | O=C(O)c1ccc2nc(Cc3cc(F)c(-c4ncc(F)c(OCc5ccc(Cl)cn5)n4)cc3F)n(C[C@@H]3CCO3)c2n1 [Compound 300, (S)-2-(4-(4-((5-chloropyridin-2-yl)methoxy)-5-fluoropyrimidin-2-yl)-2,5-difluorobenzyl)-3-(oxetan-2-ylmethyl)-3H-imidazo[4,5-b]pyridine-5-carboxylic acid]
7 | > 7.82 | 6.82 to 7.82 |  |  | O=C(O)c1ccc2nc(Cc3cc(F)c(-c4cccc(OCc5ccc(F)cn5)n4)cc3F)n(C[C@@H]3CCO3)c2n1 [Compound 298, (S)-2-(2,5-difluoro-4-(6-((5-fluoropyridin-2-yl)methoxy)pyridin-2-yl)benzyl)-3-(oxetan-2-ylmethy)-3H-imidazo[4,5-b]pyridine-5-carboxylic acid]
8 |  | 6.82 to 7.82 |  |  | O=C(O)c1ccc2nc(Cc3ccc(-c4cccc(OCc5ccc(Cl)cc5F)n4)cc3F)n(C[C@@H]3CCO3)c2n1 [Compound 287, (S)-2-(4-(6-((4-chloro-2-fluorobenzyl)oxy)pyridin-2-yl)-2-fluorobenzyl)-3-(oxetan-2-ylmethyl)-3H-imidazo[4,5-b]pyridine-5-carboxylic acid]
9 | > 7.82 | > 7.82 |  |  | O=C(O)c1ccc2nc(Cc3cc(F)c(-c4cccc(OCc5ccc(Cl)cn5)n4)cc3F)n(C[C@@H]3CCO3)c2n1 [Compound 296, (S)-2-(4-(6-((5-chloropyridin-2-yl)methoxy)pyridin-2-yl)-2,5-difluorobenzyl)-3-(oxetan-2-ylmethyl)-3H-imidazo[4,5-b]pyridine-5-carboxylic acid]
10 | > 7.82 | 6.82 to 7.82 |  |  | N#Cc1ccc(COc2cccc(-c3ccn(Cc4nc5ccc(C(=O)O)c(F)c5n4C[C@@H]4CCO4)c(=O)c3)n2)c(F)c1 [Compound 322, (S)-2-((6-((4-cyano-2-fluorobenzyl)oxy)-2′-oxo-[2,4′-bipyridin]-1′(2′H)-yl)methyl)-7-fluoro-1-(oxetan-2-ylmethyl)-1H-benzo[d]imidazole-6-carboxylic acid]
11 | > 7.82 | 6.82 to 7.82 |  |  | O=C(O)c1ccc2nc(Cc3ccc(-c4ncc(F)c(OCc5ncc(Cl)cc5F)n4)cc3F)n(C[C@@H]3CCO3)c2n1 [Compound 294, (S)-2-(4-(4-((5-chloro-3-fluoropyridin-2-yl)methoxy)-5-fluoropyrimidin-2-yl)-2-fluorobenzyl)-3-(oxetan-2-ylmethyl)-3H-imidazo[4,5-b]pyridine-5-carboxylic acid]
12 | > 7.82 | 6.82 to 7.82 |  |  | O=C(O)c1ccc2nc(Cc3cc(F)c(-c4ncc(F)c(OCc5ncc(Cl)cc5F)n4)cc3F)n(C[C@@H]3CCO3)c2c1 [Compound 272, (S)-2-(4-(4-((5-chloro-3-fluoropyridin-2-yl)methoxy)-5-fluoropyrimidin-2-yl)-2,5-difluorobenzyl)-1-(oxetan-2-ylmethyl)-1H-benzo[d]imidazole-6-carboxylic acid]
13 | > 7.82 | 6.82 to 7.82 |  |  | N#Cc1cnc(COc2nc(-c3ccc(Cc4nc5ccc(C(=O)O)nc5n4C[C@@H]4CCO4)c(F)c3)ncc2F)c(F)c1 [Compound 301, (S)-2-(4-(4-((5-cyano-3-fluoropyridin-2-yl)methoxy)-5-fluoropyrimidin-2-yl)-2-fluorobenzyl)-3-(oxetan-2-ylmethyl)-3H-imidazo[4,5-b]pyridine-5-carboxylic acid]
14 | > 7.82 |  | 33.5% | 41.8 POC | O=C(O)c1ccc2nc(Cc3ccc(-c4nccc(OCc5ccc(Cl)cc5F)n4)cc3F)n(C[C@@H]3CCO3)c2c1 [Compound 86, (S)-2-(4-(4-((4-chloro-2-fluorobenzyl)oxy)pyrimidin-2-yl)-2-fluorobenzyl)-1-(oxetan-2-ylmethyl)-1H-benzo[d]imidazole-6-carboxylic acid]
15 | > 7.82 |  | 35.8% | 21.6 POC | O=C(O)c1ccc2nc(Cc3ccc(-c4nc(OCc5ccc(Cl)cc5F)ncc4F)cc3F)n(C[C@@H]3CCO3)c2c1 [Compound 91, (S)-2-(4-(2-(4-chloro-2-fluorobenzyloxy)-5-fluoropyrimidin-4-yl)-2-fluorobenzyl)-1-(oxetan-2-ylmethyl)-1H-benzo[d]imidazole-6-carboxylic acid]
16 | > 7.82 | 6.82 to 7.82 |  |  | N#Cc1ccc(COc2nc(-c3cc(F)c(Cc4nc5ccc(C(=O)O)nc5n4C[C@@H]4CCO4)cc3F)ncc2F)nc1 [Compound 280, (S)-2-(4-(4-((5-cyanopyridin-2-yl)methoxy)-5-fluoropyrimidin-2-yl)-2,5-difluorobenzyl)-3-(oxetan-2-ylmethyl)-3H-imidazo[4,5-b]pyridine-5-carboxylic acid]
17 | > 7.82 |  | 44.6% | 29.2 POC | O=C(O)c1ccc2nc(Cc3ccc(-c4ccc(F)c(OCc5ccc(Cl)cc5F)n4)cc3F)n(C[C@@H]3CCO3)c2c1 [Compound 88, (S)-2-(4-(6-(4-chloro-2-fluorobenzyloxy)-5-fluoropyridin-2-yl)-2-fluorobenzyl)-1-(oxetan-2-ylmethyl)-1H-benzo[d]imidazole-6-carboxylic acid]
